Values quoted from earlier work in US6717012B2, “Antioxidant nitroxides and nitrones as therapeutic agents” (priority 2001, dated 2004).

Key:
[1] = test system: rats with an experimental painful peripheral neuropathy
[2] = test system: quinolic acid-induced hippocampal damage; details: rats
[3] = target: NMDA receptor (Homo sapiens, UniProt Q05586)
[4] = target: NMDA channel ([3H]dizocilpine binding to brain membranes) (Homo sapiens, UniProt Q05586)
[5] = test system: cortical and retinal neuron cultures
[6] = target: T1, 5-hydroxytryptamine 5-HT3 receptors (Homo sapiens, UniProt P46098)
T1 sequence (P46098 24-478): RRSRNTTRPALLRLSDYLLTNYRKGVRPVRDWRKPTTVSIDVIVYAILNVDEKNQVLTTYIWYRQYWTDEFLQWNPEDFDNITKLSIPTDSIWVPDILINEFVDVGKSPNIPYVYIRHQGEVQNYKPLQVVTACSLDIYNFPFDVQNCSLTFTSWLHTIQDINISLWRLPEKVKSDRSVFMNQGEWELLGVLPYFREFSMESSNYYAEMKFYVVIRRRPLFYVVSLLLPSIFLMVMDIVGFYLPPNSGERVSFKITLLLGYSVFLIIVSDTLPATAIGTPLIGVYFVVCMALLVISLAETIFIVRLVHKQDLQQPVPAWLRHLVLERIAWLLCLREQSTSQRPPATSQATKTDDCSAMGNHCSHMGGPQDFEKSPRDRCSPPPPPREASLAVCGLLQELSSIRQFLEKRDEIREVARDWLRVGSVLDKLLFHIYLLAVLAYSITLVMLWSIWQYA

[7] = test system: nicotinic acetylcholine receptors
[8] = target: PCP and MK-801 binding sites of the NMDA receptor (Homo sapiens, UniProt Q05586); details: postmortem human frontal cortex, at therapeutic concentrations

Row | antagonist potency at the NMDA receptor [3] | inhibition of [3H]dizocilpine binding [4] | block of 5-HT3 receptors [6] | block of nicotinic acetylcholine receptors [7] | binding to PCP and MK-801 binding sites [8] | Structure (SMILES) | effect on heat hyperalgesia [1] | prevention of quinolic acid-induced hippocampal damage [2] | protection from toxicity of glutamate, NMDA and HIV-1 coat protein gp120 [5]
1 |  |  |  |  |  | CC1(C)CC(O)CC(C)(C)N1[O] [4-hydroxy-2,2,6,6-tetramethylpiperidine-1-oxyl] | alleviated heat hyperalgesia |  | 
2 | micromolar antagonist | inhibits | blocks | blocks | binds | CC12CC3CC(C)(C1)CC(N)(C3)C2 [Memantine, 1-amino-3,5-dimethyladamantane] |  | prevents | protects
